The record followed here is patent publication US20150203444A1, “POLYMORPHS OF N-((S)-3-AMINO-1-(HYDROXYAMINO)-3-METHYL-1-OXOBUTAN-2-YL)-4-(((1R,2R)-2-(HYDROXYMETHYL)CYCLOPROPYL)BUTA-1,3-DIYNYL)BENZAMIDE” (Achaogen, Inc., priority 2011, published 2015).

Counter-ions that a name gives are not always drawn.

The nature of data set [1]: Stability at elevated humidity (XRPD form check). Format: physicochemical. The note with it: summary statement. How it is done: Approximately 30 mg of Form A, Form B and Form C were placed on an XRPD slide and kept inside a glass jar containing a water solution saturated with NaCl. The solution maintains 75% relative humidity inside the jar. The container was covered with aluminum foil to prevent exposure to light. The sample was kept in this environment for seven days at room temperature. After this time period the slide was removed from the chamber and analyzed immediately by XRPD (see Table 4).

Data set [2] can be described thus: Stability at elevated temperature (XRPD form check and HPLC purity). It is filed as physicochemical. The note with it: for % AUC (Following exposure): HPLC purity after seven days at 60° C.; for % AUC (Control): HPLC purity, control before exposure. How it is done:
Approximately 10 mg of Form A, Form B and Form C were weighed to individual 4-mL amber vials covered with a kimwipe and stored in an oven at 60° C. and ambient pressure. After seven days of exposure, the solids were be analyzed by XRPD to check for form conversion and HPLC for purity (see Table 5).

The nature of data set [3]: Competitive slurry experiments (XRPD). Format: physicochemical. The note with it: competitive slurry of Forms A, B and C together, IPA:IBAc (10:90), room temperature. How it is done:
Approximately 10 mg of Form A, B and C were weighed into 2.0-mL vials equipped with a stir bar. 0.5 mL of solvent was added and the resulting free flowing slurry was allowed to equilibrate with stirring at room temperature. Samples were pulled at one day and seven day time points, filtered through 0.45 micron centrifuge filters, dried overnight at room temperature under vacuum and analyzed by XRPD (see Table 7).

The nature of data set [4]: Solid-state properties of the polymorphs (summary statement). Format: physicochemical.
Data set [5] deals with Pseudomonas aeruginosa ATCC27853. The experiment in a line: MIC by broth microdilution (CLSI), APAE001. Format: cell-based. To be noted: ATCC27853, read-out: Minimum Inhibitory Concentration (MIC) APAE001. The procedure:
(§1) Bacterial isolates were cultivated from −70° C. frozen stocks by overnight passages at 35° C. in ambient air on Mueller-Hinton agar (Beckton Dickinson, Franklin Lakes, N.J.). Clinical isolates tested were obtained from various geographically diverse hospitals in the US and abroad (Focus Diagnostics, Herndon, Va. and JMI, North Liberty, Iowa). Quality control strains were from the American Type Culture Collection (ATCC; Rockville, Md.).
(§2) Minimum Inhibitory Concentrations (MICs) were determined by the broth microdilution method in accordance with the Clinical and Laboratory Standards Institute (CLSI) guidelines. In brief, organism suspensions were adjusted to a 0.5 McFarland standard to yield a final inoculum between 3×10^5 and 7×10^5 colony-forming units (CFU)/mL. Drug dilutions and inocula were made in sterile, cation adjusted Mueller-Hinton Broth (Beckton Dickinson). An inoculum volume of 100 μL was added to wells containing 100 μL of broth with 2-fold serial dilutions of drug. All inoculated microdilution trays were incubated in ambient air at 35° C. for 18-24 h. Following incubation, the lowest concentration of the drug that prevented visible growth (OD600 nm<0.05) was recorded as the MIC. Performance of the assay was monitored by the use of laboratory quality-control strains and levofloxacin, a compound with a defined MIC spectrum, in accordance with CLSI guidelines. […]
In general terms: In broth dilution the organism is exposed to a series of concentrations in liquid medium.

Another data set deals with E. coli ATCC25922. The experiment in a line: MIC by broth microdilution (CLSI), AECO001. Format: cell-based. The note with it: Escherichia coli, ATCC25922, read-out: Minimum Inhibitory Concentration (MIC) AECO001. How it is done:
as §1, §2

Data set [6] has as its system clinical isolate of Pseudomonas aeruginosa expressing a normal level of efflux activity. The experiment in a line: MIC by broth microdilution (CLSI), APAE002. To be noted: read-out: Minimum Inhibitory Concentration (MIC) APAE002. Format: cell-based. The procedure:
as §1, §2

The test system of data set [7] is Klebsiella pneumoniae ATCC43816. Nature of the data set: MIC by broth microdilution (CLSI), AKPN001. It is filed as cell-based. To be noted: ATCC43816, read-out: Minimum Inhibitory Concentration (MIC) AKPN001. The procedure: as §1, §2

In the case of `CC(C)(N)[C@H](NC(=O)c1ccc(C#CC#C[C@@H]2C[C@H]2CO)cc1)C(=O)NO` [Form B, N—((S)-3-amino-1-(hydroxyamino)-3-methyl-1-oxobutan-2-yl)-4-(((1R,2R)-2-(hydroxymethyl)cyclopropyl)buta-1,3-diynyl)benzamide], the “Stability to exposure to elevated relative humidity” value in data set [1] was “exhibited stability”. For the same compound, in data set [2], the “% AUC (Following exposure)” value came out at 97.4 % AUC and the “% AUC (Control)” value is 99.6 % AUC. For the same compound, the “Stability to prolonged thermal stress” value in data set [2] (summary statement) is reported as “exhibited stability”. Besides, the “XRPD Final Form (1 day)” value in data set [3] is “A + B”. Further, the “Thermodynamic stability among the three polymorphic forms” value in data set [4] is reported as “most thermodynamically stable”.
Consider `CC(C)(N)[C@H](NC(=O)c1ccc(C#CC#C[C@@H]2C[C@H]2CO)cc1)C(=O)NO` [Form A, N—((S)-3-amino-1-(hydroxyamino)-3-methyl-1-oxobutan-2-yl)-4-(((1R,2R)-2-(hydroxymethyl)cyclopropyl)buta-1,3-diynyl)benzamide], for which, in data set [2], the “% AUC (Following exposure)” value is given as 94.5 % AUC and the “% AUC (Control)” value worked out at 99.2 % AUC. For the same compound, in data set [3], the “XRPD Final Form (1 day)” value is reported as “A + B”. In data set [4] (solid), the Hygroscopicity entry is reported as “moderately hygroscopic”.
Consider `CC(C)(N)[C@H](NC(=O)c1ccc(C#CC#C[C@@H]2C[C@H]2CO)cc1)C(=O)NO` [Form C, N—((S)-3-amino-1-(hydroxyamino)-3-methyl-1-oxobutan-2-yl)-4-(((1R,2R)-2-(hydroxymethyl)cyclopropyl)buta-1,3-diynyl)benzamide], for which, in data set [2], the “% AUC (Following exposure)” value was determined as 95.5 % AUC and the “% AUC (Control)” value worked out at 99.0 % AUC. Besides, the “XRPD Final Form (1 day)” value in data set [3] is “A + B”. For the same compound, the “Thermodynamic stability among the three polymorphic forms” value in data set [4] was “metastable”.
`CC(C)(N)[C@H](NC(=O)c1ccc(C#CC#C[C@@H]2C[C@H]2CO)cc1)C(=O)NO` [I (trifluoroacetate salt), N—((S)-3-amino-1-(hydroxyamino)-3-methyl-1-oxobutan-2-yl)-4-(((1R,2R)-2-(hydroxymethyl)cyclopropyl)buta-1,3-diynyl)benzamide trifluoroacetate salt]: the MIC (in data set [5]; in the data set with E. coli ATCC25922; in data set [6]; in data set [7]) was less than 2 µg/mL throughout.
